Experimental data from patent publication US8039430B2 (University of Wollongong, priority 2005, dated 2011).
Structures can show the parent of a compound that is named as a salt. Where two headings read alike, the source gives them in different places. Square brackets hold non-standard residues; d marks the D form. Peptide text beside a SMILES is read from it. * marks the point of attachment. Fmoc = O=C(OCC1c2ccccc2-c2ccccc21)*; dAllylGly = C=CC[C@@H](N)C(=O)O; AllylGly = C=CC[C@H](N)C(=O)O

Legend:
[1] = system: Staphylococcus aureus strain ATCC 6538P; assay: Antibacterial screening (MIC) of compounds of Example 2, S. aureus, Mueller-Hinton broth; type: cell-based
Method: Antibacterial Screening Methodology for Compounds of Example 2
(§1) • All assays used the Staphylococcus aureus strain ATCC 6538P. • Assays described in Chapter 5 additionally used the vancomycin-resistant enterococci and vancomycin-sensitive enterococci strains Ef243, Ef449, Ef820 and Ef487. Culture Media • Mueller-Hinton Broth Medium (MHB): MHB (Oxoid CM405) was prepared with final concentrations of […] MgCl2 and 2 μg/mL CaCl2. Culture medium was pre-warmed for approximately 2-3 h at 37° C. before use. • Mueller-Hinton Agar Medium (MHA): MMB containing 1.5% Agar (Merck Agar 1.01614). Maintenance of Bacteria • From a thawed cryovial, the bacteria was streaked onto MHA and the plate incubated overnight at 37° C. • From this plate, 10 cryovials were prepared by looping several colonies into 0.5 mL of 20% glycerol solution. The cryovials were immediately stored at −140° C. Preparation of Seed Cultures • A cryovial was removed from −140° C. storage and thawed at room temperature. • An MHA plate was streaked with a loopful of bacterial suspension and incubated overnight at 37° C. to create a parent plate (P1). • A daughter plate (D1) was streaked from the parent plate and incubated overnight at 37° C. […] The second parent plate (P2) was used to generate two additional daughter plates using the procedure outlined above before being discarded. • Cryovials were used twice to prepare parent plates (P1 and P2) before being discarded. […] A vancomycin control set (triplicate) and a compound negative control set (triplicate) were also included on each plate (FIG. 1). • The inoculated culture medium was incubated at 37° C. for 30 min, with shaking at 130 rpm. • Using a multichannel pipette, the contents of the first row were mixed before 50 μL was transferred to the second row. The pipette tips were changed and the process repeated by 50 μL of the mixed broth solutions in the second row being transferred to the third row. This process was repeated until the last row contained either the diluted test compound or a control (vancomycin or compound-negative). […] Antibacterial Testing of Compounds of Example 2 Introduction
(§2) The specific testing procedures and protocols are outlined in the section “Antibacterial Screening Methodology for the Compounds of Example 2”.
The antibacterial activity results are measured by minimum inhibitory concentration (MIC), which is the lowest concentration of compound necessary to prevent bacterial growth.

E.f243 = assay: Antibacterial screening (MIC) of compounds of Example 2, E.f243; type: cell-based, Enterococcus faecium; settings: Enterococcus faecium; Example 2 compounds; enterococci strain E.f243; read-out: Antibacterial activity μg/mL, E.f243
Method: as §1, §2
(§3) Vancomycin was used as the standard/control.

E.f449 = assay: Antibacterial screening (MIC) of compounds of Example 2, E.f449; type: cell-based, Enterococcus faecium; settings: Enterococcus faecium; Example 2 compounds; enterococci strain E.f449; read-out: Antibacterial activity μg/mL, E.f449
Method: as §1, §2, §3

E.f820 = assay: Antibacterial screening (MIC) of compounds of Example 2, E.f820; type: cell-based, Enterrococci faecium; settings: Example 2 compounds, fully vancomycin-resistant strain E.f820; for MIC: read-out: Antibacterial activity μg/mL, E.f820
Method: as §1, §2, §3

E.f987 = assay: Antibacterial screening (MIC) of compounds of Example 2, E.f987; type: cell-based, Enterococcus faecium; settings: Enterococcus faecium; Example 2 compounds; enterococci strain E.f987; read-out: Antibacterial activity μg/mL, E.f987
[2] = Staphylococcus aureus, ATCC6538P, Example 2 compounds (linear cationic peptides), S. aureus, vancomycin-susceptible strain, read-out: Antibacterial activity μg/mL, S.a
[3] = Staphylococcus aureus, ATCC6538P, 18 h, read-out: Antibacterial activity (MIC μg/mL)
[4] = Staphylococcus aureus, ATCC6538P, Example 2 compounds, S. aureus, 18 h, 37° C., read-out: Antibacterial activity (MIC μg/mL)

Molecule `C=CCOc1ccc(C[C@H](NC(=O)[C@@H](CCCNC(=N)N)NC(=O)COc2ccc3ccccc3c2-c2c(OCC=C)ccc3ccccc23)C(=O)OC)cc1.Cl` (atropisomer, axis not shown) [Compound 120] has an MIC [1, 2] of 3.9 µg/mL, an MIC (E.f243) of 62.5 µg/mL and an MIC (E.f449) of 62.5 µg/mL. The MIC (E.f820) was 62.5 µg/mL and the MIC (E.f987) was 62.5 µg/mL.
Work on `C=CCOc1ccc(C[C@H](NC(=O)[C@@H](CCCNC(=N)N)NC(=O)COc2ccc3ccccc3c2-c2c(O)ccc3ccccc23)C(=O)OC)cc1.Cl` (atropisomer, axis not shown) [Compound 121, Methyl(2S,5R)-2-allyloxybenzyl-3,6-diaza-8-(2-[2′-hydroxy-{1,1′}-(S)-binaphthalen-2-yloxy])-5-(3-[guanidino]propyl)-4,7-dioxooctanoate] yielded an MIC [1, 2] of 7.8 µg/mL, an MIC (E.f243) of 125 µg/mL and an MIC (E.f449) of 125 µg/mL. For the same molecule, the MIC (E.f820) was 125 µg/mL and the MIC (E.f987) was greater than 125 µg/mL.
With `C=CCOc1ccc2ccccc2c1-c1c(OCC(=O)N[C@H](CCCCN)C(=O)N[C@H](CCCNC(=N)N)C(=O)N[C@@H](CC=C)C(=O)OCc2ccccc2)ccc2ccccc12.Cl.Cl` (atropisomer, axis not shown) [Compound 132] the MIC [1, 2] was 3.9 µg/mL, the MIC (E.f243) was 31.3 µg/mL and the MIC (E.f449) was 31.3 µg/mL. It also gave an MIC (E.f820) of 31.3 µg/mL and an MIC (E.f987) of 62.5 µg/mL.
Molecule `C=CC[C@H](NC(=O)[C@@H](CCCNC(=N)N)NC(=O)[C@@H](CCCCN)NC(=O)COc1ccc2ccccc2c1-c1c(OC)ccc2ccccc12)C(=O)OCc1ccccc1.Cl.Cl` (atropisomer, axis not shown) [Compound 135] has an MIC [1, 2] of 7.8 µg/mL, an MIC (E.f243) of 125 µg/mL and an MIC (E.f449) of 62.5 µg/mL. It also gave an MIC (E.f820) of 62.5 µg/mL and an MIC (E.f987) of 125 µg/mL.
With `C=CC[C@H](NC(=O)[C@@H](CCCNC(=N)N)NC(=O)[C@@H](CCCCN)NC(=O)COc1ccc2ccccc2c1-c1c(O)ccc2ccccc12)C(=O)OCc1ccccc1.Cl.Cl` (atropisomer, axis not shown) [Compound 136, Benzyl(2S,5R,8R)-2-allyl-3,6,9-triaza-8-(butylamino)-5-(3-guanidinopropyl)-11-(2-[2′-hydroxy-{1,1′}-(S)-binaphthalen-2-yloxy])-4,7,10-trioxoundecanoate dihydrochloride] the MIC [1, 2] was 7.8 µg/mL, the MIC (E.f243) was 125 µg/mL and the MIC (E.f449) was 62.5 µg/mL. The MIC (E.f820) was 62.5 µg/mL and the MIC (E.f987) was 125 µg/mL.
In the case of `C=CC[C@H](NC(=O)[C@@H](CCCNC(=N)N)NC(=O)[C@@H](CCCCN)NC(=O)COc1ccc2ccccc2c1-c1c(OCCCc2ccccc2)ccc2ccccc12)C(=O)OCc1ccccc1.Cl.Cl` (atropisomer, axis not shown) [Compound 137], the MIC [1, 2] is reported as 3.9 µg/mL, the MIC (E.f243) is reported as 62.5 µg/mL and the MIC (E.f449) is reported as 31.3 µg/mL. The MIC (E.f820) was 31.3 µg/mL and the MIC (E.f987) was 62.5 µg/mL.
For `C=CC[C@H](NC(=O)[C@@H](CCCNC(=N)N)NC(=O)[C@@H](CCCCN)NC(=O)COc1ccc2ccccc2c1-c1c(OCCC(C)C)ccc2ccccc12)C(=O)OCc1ccccc1.Cl.Cl` (atropisomer, axis not shown) [Compound 138], the MIC [1, 2] was 3.9 µg/mL, the MIC (E.f243) was 31.3 µg/mL and the MIC (E.f449) was 15.6 µg/mL. For the same molecule, the MIC (E.f820) was 15.6 µg/mL and the MIC (E.f987) was 31.3 µg/mL.
In the case of `COC(=O)[C@@H]1CC=CCOc2ccc(cc2)C[C@H](NC(C)=O)C(=O)N[C@H](CCCCN)C(=O)N1` [Compound 12, (7S,10R,13S,4E/Z)-13-Acetamido-10-(4-aminobutyl)-8,11-diaza-7-methoxycarbonyl-2-oxa-9,12-dioxo-1(1,4)phenylenacyclotetradecaphane-4-ene hydrochloride], the MIC [1, 3] is reported as 62.5 µg/mL.
`COC(=O)[C@@H]1CC=CCOc2ccc(cc2)C[C@@H](NC(C)=O)C(=O)N[C@@H](CCCNC(=N)N)C(=O)N1.Cl` [Compound 56, (7S,10S,13R,4E/Z)-13-Acetamido-8,11-diaza-10-(3-[amino{imino}methylamino]propyl)-7-methoxycarbonyl-2-oxa-9,12-dioxo-1(1,4)phenylenacyclotetradecaphane-4-ene] gave an MIC [1, 4] of 125 µg/mL.
`COC(=O)[C@@H]1Cc2ccc(cc2)OCC=CCOc2ccc(cc2)C[C@H](NC(C)=O)C(=O)N[C@H](CCCCN)C(=O)N1.Cl` [Compound 65, (10S,13R,16S,4E/Z)-16-Acetamido-13-(4-aminobutyl)-11,14-diaza-10-methoxycarbonyl-2,7-dioxa-12,15-dioxo-1(1,4),8(4,1)-diphenylenecycloheptadecaphane-4-ene] showed an MIC [1, 4] of 15.6 µg/mL.
`C=CC[C@H](NC(=O)[C@@H](CCCNC(=N)N)NC(=O)OCC1c2ccccc2-c2ccccc21)C(=O)OC.Cl` [Compound 69, Methyl(2S,5R)-2-allyl-3-aza-5-(9H-9-fluorenylmethyloxycarboxamido)-8-(guanidino)-4-oxooctanoate hydrochloride] (Fmoc-[dR]-[AllylGly]-OMe) gave an MIC [1, 4] of 125 µg/mL.
In the case of `C=CC[C@H](NC(=O)[C@H](CCCNC(=N)N)NC(=O)OCC1c2ccccc2-c2ccccc21)C(=O)OC.Cl` [Compound 70, Methyl(2S,5S)-2-allyl-3-aza-5-(9H-9-fluorenylmethyloxycarboxamido)-8-(guanidino)-4-oxooctanoate hydrochloride] (Fmoc-Arg-[AllylGly]-OMe), the MIC [1, 4] is reported as 125 µg/mL.
`C=CC[C@@H](NC(=O)[C@@H](CCCNC(=N)N)NC(=O)OCC1c2ccccc2-c2ccccc21)C(=O)OC.Cl` [Compound 71, Methyl(2R,5R)-2-allyl-3-aza-5-(9H-9-fluorenylmethyloxycarboxamido)-8-(guanidino)-4-oxooctanoate hydrochloride] (Fmoc-[dR]-[dAllylGly]-OMe) showed an MIC [1, 4] of 125 µg/mL.
`C=CC[C@@H](NC(=O)[C@H](CCCNC(=N)N)NC(=O)OCC1c2ccccc2-c2ccccc21)C(=O)OC.Cl` [Compound 72, Methyl(2R,5S)-2-allyl-3-aza-5-(9H-9-fluorenylmethyloxycarboxamido)-8-(guanidino)-4-oxooctanoate hydrochloride] (Fmoc-Arg-[dAllylGly]-OMe) was tested, and the MIC [1, 4] was 125 µg/mL.
`C=CCOc1ccc(C[C@H](NC(=O)[C@@H](CCCCN)NC(=O)OCC2c3ccccc3-c3ccccc32)C(=O)OC)cc1.Cl` [Compound 73, Methyl(2S,5R)-2-(4-allyloxybenzyl)-9-amino-3-aza-5-(9H-9-fluorenylmethyloxycarboxamido)-4-oxononanoate hydrochloride] was tested, and the MIC [1, 4] was 31.3 µg/mL.
`C=CCOc1ccc(C[C@H](NC(=O)[C@H](CCCCN)NC(=O)OCC2c3ccccc3-c3ccccc32)C(=O)OC)cc1.Cl` [Compound 74, Methyl(2S,5S)-2-(4-allyloxybenzyl)-9-amino-3-aza-5-(9H-9-fluorenylmethyloxycarboxamido)-4-oxononanoate hydrochloride] gave an MIC [1, 4] of 15.6 µg/mL.
`C=CCOc1ccc(C[C@H](NC(=O)[C@@H](CCCNC(=N)N)NC(=O)OCC2c3ccccc3-c3ccccc32)C(=O)OC)cc1.Cl` [Compound 75] gave an MIC ([1]; Example 2 compounds, S. aureus, best activity named in the text) of 7.8 µg/mL and an MIC [1, 4] of 7.8 µg/mL.
Work on `C=CCOc1ccc(C[C@H](NC(C)=O)C(=O)N[C@H](CCCCN)C(=O)N[C@@H](CC=C)C(=O)OC)cc1` [Compound 77, hydrochloride] yielded an MIC [1, 3] of 125 µg/mL.
Work on `C=CCOc1ccc(C[C@H](NC(C)=O)C(=O)N[C@H](CCCCN)C(=O)N[C@@H](Cc2ccc(OCC=C)cc2)C(=O)OC)cc1.Cl` [Compound 83, Methyl(2S,5R,8S)-2,8-di(4-allyloxybenzyl)-5-(4-aminobutyl)-3,6,9-triaza-4,7,10-trioxoundecanoate hydrochloride] yielded an MIC [1, 4] of 125 µg/mL.
With `C=CCOc1ccc2ccccc2c1-c1c(OCC(=O)N[C@H](CCCN)C(=O)Nc2cccc(C(=O)NOCc3ccccc3)c2)ccc2ccccc12.Cl` [Compound 161] the “Antibacterial activity μg/mL, S.a” value ([1]; Example 2 compounds (linear cationic peptides), S. aureus, vancomycin-susceptible strain) was 15.6 µg/mL and the “Antibacterial activity μg/mL, E.f820” value (E.f820) was 62.5 µg/mL.
For “Methyl(2S,5S)-2-(4-allyloxybenzyl)-3-aza-5-(9H-9-fluorenylmethylcarboxamido)-8-guanidino-4-oxononanoate hydrochloride [Compound 76]”, the “Antibacterial activity (MIC μg/mL)” value ([1]; Example 2 compounds, S. aureus, 18 h, 37° C.) was 15.6 µg/mL.
